Experimental data taken from PubChem BioAssay (NCI).
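96-well plates; 48 h exposure; 5 concentrations. Endpoints by linear interpolation between flanking doses. Not reached: highest tested concentration assigned. TGI: concentration producing complete growth inhibition.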

What was measured:
Assay in all cases: growth of human tumour cells (NCI), 48 h
A549 NSCLC = tested on: A549 NSCLC
SK-MEL-28 melanoma = tested on: SK-MEL-28 melanoma
M14 melanoma = tested on: M14 melanoma
HOP-18 NSCLC = tested on: HOP-18 NSCLC
HT29 colon = tested on: HT29 colon
M19-MEL melanoma = tested on: M19-MEL melanoma
UACC-257 melanoma = tested on: UACC-257 melanoma
ACHN renal = tested on: ACHN renal
CCRF-CEM leukemia = tested on: CCRF-CEM leukemia
OVCAR-8 ovarian = tested on: OVCAR-8 ovarian
MALME-3M melanoma = tested on: MALME-3M melanoma
SNB-75 CNS = tested on: SNB-75 CNS
SK-MEL-5 melanoma = tested on: SK-MEL-5 melanoma
SNB-19 CNS = tested on: SNB-19 CNS
KM12 colon = tested on: KM12 colon
HL-60(TB) leukemia = tested on: HL-60(TB) leukemia
COLO 205 colon = tested on: COLO 205 colon
SN12C renal = tested on: SN12C renal
RXF 393 renal = tested on: RXF 393 renal
KM20L2 colon = tested on: KM20L2 colon
EKVX NSCLC = tested on: EKVX NSCLC
HOP-62 NSCLC = tested on: HOP-62 NSCLC
CAKI-1 renal = tested on: CAKI-1 renal
DLD-1 colon = tested on: DLD-1 colon
LOX IMVI melanoma = tested on: LOX IMVI melanoma
SW-620 colon = tested on: SW-620 colon
IGROV1 ovarian = tested on: IGROV1 ovarian
RPMI-8226 leukemia = tested on: RPMI-8226 leukemia
NCI-H522 lung = tested on: NCI-H522 lung
K-562 leukemia = tested on: K-562 leukemia
NCI-H460 lung = tested on: NCI-H460 lung
TK-10 renal = tested on: TK-10 renal
XF 498 CNS = tested on: XF 498 CNS
UACC-62 melanoma = tested on: UACC-62 melanoma
A498 renal = tested on: A498 renal
HCT-15 colon = tested on: HCT-15 colon
NCI-H23 lung = tested on: NCI-H23 lung
HOP-92 NSCLC = tested on: HOP-92 NSCLC
SK-OV-3 ovarian = tested on: SK-OV-3 ovarian
OVCAR-4 ovarian = tested on: OVCAR-4 ovarian
DMS 114 small cell lung = tested on: DMS 114 small cell lung
HCT-116 colon = tested on: HCT-116 colon
786-0 renal = tested on: 786-0 renal
LXFL 529 NSCLC = tested on: LXFL 529 NSCLC
OVCAR-5 ovarian = tested on: OVCAR-5 ovarian
MOLT-4 leukemia = tested on: MOLT-4 leukemia
HCC-2998 colon = tested on: HCC-2998 colon
OVCAR-3 ovarian = tested on: OVCAR-3 ovarian
UO-31 renal = tested on: UO-31 renal
SK-MEL-2 melanoma = tested on: SK-MEL-2 melanoma
U251 CNS = tested on: U251 CNS
SF-295 CNS = tested on: SF-295 CNS
SF-268 CNS = tested on: SF-268 CNS
NCI-H226 lung = tested on: NCI-H226 lung
SNB-78 CNS = tested on: SNB-78 CNS
SF-539 CNS = tested on: SF-539 CNS
DMS 273 small cell lung = tested on: DMS 273 small cell lung
SR leukemia = tested on: SR leukemia

## CCOP1(=O)C=CC(Cl)=C(C)C1 (configuration not stated)
A549 NSCLC
  TGI: > 100 µM
SK-MEL-28 melanoma
  TGI: 30.3 µM
M14 melanoma
  TGI: 29 µM
HOP-18 NSCLC
  TGI: 31.2 µM
HT29 colon
  TGI: 28.5 µM
M19-MEL melanoma
  TGI: > 57.3 µM
UACC-257 melanoma
  TGI: 39.8 µM
ACHN renal
  TGI: 24.8 µM
CCRF-CEM leukemia
  TGI: 12 µM
OVCAR-8 ovarian
  TGI: 71.6 µM
MALME-3M melanoma
  TGI: 29 µM
SNB-75 CNS
  TGI: 19.9 µM
SK-MEL-5 melanoma
  TGI: 36.5 µM
SNB-19 CNS
  TGI: > 100 µM
KM12 colon
  TGI: 33.5 µM
HL-60(TB) leukemia
  TGI: 15.3 µM
COLO 205 colon
  TGI: 44.4 µM
SN12C renal
  TGI: 16.3 µM
RXF 393 renal
  TGI: 14.3 µM
KM20L2 colon
  TGI: 31.8 µM
EKVX NSCLC
  TGI: > 56.8 µM
HOP-62 NSCLC
  TGI: 70 µM
CAKI-1 renal
  TGI: 23.7 µM
DLD-1 colon
  TGI: 25.4 µM
LOX IMVI melanoma
  TGI: 39 µM
SW-620 colon
  TGI: 30.4 µM
IGROV1 ovarian
  TGI: 55.1 µM
RPMI-8226 leukemia
  TGI: > 59.4 µM
NCI-H522 lung
  TGI: 17.3 µM
K-562 leukemia
  TGI: 20.4 µM
NCI-H460 lung
  TGI: 74.3 µM
TK-10 renal
  TGI: 34.2 µM
XF 498 CNS
  TGI: 34.3 µM
UACC-62 melanoma
  TGI: 32.2 µM
A498 renal
  TGI: > 71.1 µM
HCT-15 colon
  TGI: 30.1 µM
NCI-H23 lung
  TGI: 18.1 µM
HOP-92 NSCLC
  TGI: 34.3 µM
SK-OV-3 ovarian
  TGI: > 100 µM
OVCAR-4 ovarian
  TGI: 30.7 µM
DMS 114 small cell lung
  TGI: 39.4 µM
HCT-116 colon
  TGI: 44.7 µM
786-0 renal
  TGI: 30.6 µM
LXFL 529 NSCLC
  TGI: 25.9 µM
OVCAR-5 ovarian
  TGI: 50.2 µM
MOLT-4 leukemia
  TGI: 19.9 µM
HCC-2998 colon
  TGI: 29.6 µM
OVCAR-3 ovarian
  TGI: 35 µM
UO-31 renal
  TGI: > 71.5 µM
SK-MEL-2 melanoma
  TGI: 27.5 µM
U251 CNS
  TGI: 65.3 µM
SF-295 CNS
  TGI: > 100 µM
SF-268 CNS
  TGI: 56.9 µM
NCI-H226 lung
  TGI: > 100 µM
SNB-78 CNS
  TGI: 47.5 µM
SF-539 CNS
  TGI: 43.6 µM

## O=C(O)CCCNS(=O)(=O)c1ccccc1
A549 NSCLC
  TGI: > 100 µM
SK-MEL-28 melanoma
  TGI: > 100 µM
M14 melanoma
  TGI: > 100 µM
HOP-18 NSCLC
  TGI: > 100 µM
HT29 colon
  TGI: > 100 µM
M19-MEL melanoma
  TGI: > 100 µM
UACC-257 melanoma
  TGI: > 100 µM
ACHN renal
  TGI: > 100 µM
CCRF-CEM leukemia
  TGI: > 100 µM
OVCAR-8 ovarian
  TGI: > 100 µM
MALME-3M melanoma
  TGI: > 100 µM
SNB-75 CNS
  TGI: > 100 µM
SK-MEL-5 melanoma
  TGI: > 100 µM
SNB-19 CNS
  TGI: > 100 µM
KM12 colon
  TGI: > 100 µM
HL-60(TB) leukemia
  TGI: > 100 µM
COLO 205 colon
  TGI: > 100 µM
SN12C renal
  TGI: > 100 µM
RXF 393 renal
  TGI: > 100 µM
KM20L2 colon
  TGI: > 100 µM
EKVX NSCLC
  TGI: > 100 µM
CAKI-1 renal
  TGI: > 100 µM
DLD-1 colon
  TGI: > 100 µM
LOX IMVI melanoma
  TGI: > 100 µM
SW-620 colon
  TGI: > 100 µM
IGROV1 ovarian
  TGI: > 100 µM
RPMI-8226 leukemia
  TGI: > 100 µM
NCI-H522 lung
  TGI: > 100 µM
K-562 leukemia
  TGI: > 100 µM
NCI-H460 lung
  TGI: > 100 µM
TK-10 renal
  TGI: > 100 µM
XF 498 CNS
  TGI: > 100 µM
UACC-62 melanoma
  TGI: > 100 µM
A498 renal
  TGI: > 100 µM
HCT-15 colon
  TGI: > 100 µM
NCI-H23 lung
  TGI: > 100 µM
HOP-92 NSCLC
  TGI: > 100 µM
SK-OV-3 ovarian
  TGI: > 100 µM
OVCAR-4 ovarian
  TGI: > 100 µM
786-0 renal
  TGI: > 100 µM
LXFL 529 NSCLC
  TGI: > 100 µM
OVCAR-5 ovarian
  TGI: > 100 µM
DMS 273 small cell lung
  TGI: > 100 µM
MOLT-4 leukemia
  TGI: > 100 µM
HCC-2998 colon
  TGI: > 100 µM
OVCAR-3 ovarian
  TGI: > 100 µM
UO-31 renal
  TGI: > 100 µM
SK-MEL-2 melanoma
  TGI: > 100 µM
U251 CNS
  TGI: > 100 µM
SF-295 CNS
  TGI: > 100 µM
SF-268 CNS
  TGI: > 100 µM
NCI-H226 lung
  TGI: > 100 µM
SF-539 CNS
  TGI: > 100 µM

## NC(=O)NN/C=C(/C=Nc1ccccc1)[N+](=O)[O-]
A549 NSCLC
  TGI: > 100 µM
SK-MEL-28 melanoma
  TGI: > 100 µM
M14 melanoma
  TGI: > 100 µM
HOP-18 NSCLC
  TGI: > 100 µM
HT29 colon
  TGI: > 100 µM
M19-MEL melanoma
  TGI: > 100 µM
UACC-257 melanoma
  TGI: > 100 µM
ACHN renal
  TGI: > 100 µM
CCRF-CEM leukemia
  TGI: > 100 µM
OVCAR-8 ovarian
  TGI: > 100 µM
SK-MEL-5 melanoma
  TGI: > 100 µM
SNB-19 CNS
  TGI: > 100 µM
HL-60(TB) leukemia
  TGI: > 100 µM
COLO 205 colon
  TGI: > 100 µM
SN12C renal
  TGI: > 100 µM
RXF 393 renal
  TGI: > 100 µM
KM20L2 colon
  TGI: > 100 µM
EKVX NSCLC
  TGI: > 100 µM
HOP-62 NSCLC
  TGI: > 100 µM
DLD-1 colon
  TGI: > 100 µM
LOX IMVI melanoma
  TGI: > 100 µM
SW-620 colon
  TGI: > 100 µM
IGROV1 ovarian
  TGI: > 100 µM
RPMI-8226 leukemia
  TGI: > 100 µM
NCI-H522 lung
  TGI: > 100 µM
K-562 leukemia
  TGI: > 100 µM
NCI-H460 lung
  TGI: > 100 µM
TK-10 renal
  TGI: > 100 µM
XF 498 CNS
  TGI: > 100 µM
UACC-62 melanoma
  TGI: > 100 µM
HCT-15 colon
  TGI: > 100 µM
NCI-H23 lung
  TGI: > 100 µM
HOP-92 NSCLC
  TGI: > 100 µM
SK-OV-3 ovarian
  TGI: > 100 µM
OVCAR-4 ovarian
  TGI: > 100 µM
DMS 114 small cell lung
  TGI: > 100 µM
HCT-116 colon
  TGI: > 100 µM
786-0 renal
  TGI: > 100 µM
LXFL 529 NSCLC
  TGI: > 100 µM
DMS 273 small cell lung
  TGI: > 100 µM
MOLT-4 leukemia
  TGI: > 100 µM
HCC-2998 colon
  TGI: > 100 µM
OVCAR-3 ovarian
  TGI: > 100 µM
UO-31 renal
  TGI: > 100 µM
U251 CNS
  TGI: > 100 µM
SR leukemia
  TGI: > 100 µM
SF-295 CNS
  TGI: > 100 µM
SF-268 CNS
  TGI: > 100 µM
